From patent publication US20100197803A1, “METHOD FOR OBTAINING A SEQUOYITOL-CONTAINING EXTRACT FROM A PLANT OF THE GENUS OF TRIFOLIUM, LEGUMINOSAE OR GINKOACEAE AND USES THEREOF” (LIANCHUANGSIYUANLI BIOLOGY AND SCIENCE AND TECHNOLOGY CO., …, priority 2007, published 2010)
Where a name gives a salt, the structure may show the parent alone.

Columns and labels:
Solubility in water = type: physicochemical
Procedure: The sequoyitol was dissolved in water and sterilized by filtration. Solutions for injection were prepared according to the preparation process of solutions for injection. Powder for injection was prepared according to the preparation process of lyophilized powder for injection.

diabetes models = details: sequoyitol isolated from Taxus chinensis; cited from earlier work
[1] = sequoyitol isolated from Taxus chinensis; cited from earlier work
[2] = system: elevated level of blood glucose induced by Alloxan in mice; assay: Effect on the elevated level of blood glucose induced by alloxan in mice; type: in vivo; details: 75 mg/kg for 7 days
Procedure: Animals: 100 male mice weighed 22-25 g, Positive control: Phenformin Hydrochloride (Jiangsu Yabang Pharmaceutical (group) Co., Ltd.),
20 mice were randomly selected as the blank group. Others were injected intravenously with Alloxan via caudal vein at a dose of 65 mg/kg body weight, and then modeled according to established methods. The mice were divided into 4 groups according to their level of blood glucose, in which 3 groups were administered with 60 mg/kg of the plant extract, 75 mg/kg of Phenformin Hydrochloride, or 60 mg/kg of sequoyitol-containing Taxus chinensis extract respectively for 7 days, in a volume of 0.1 ml/10 g body weight. The same volume of distilled water was administered to the blank group and the control group. Blood glucose was determined using glucose oxidase method.

| Solubility in water (Solubility in water) | SMILES | Effect on breakdown of hepatic glycogen and absorption of glucose (diabetes models) | Effect on high glycemia in diabetes models (diabetes models) | Toxicity [1] | Decrease of alloxan-induced hyperglycemia in comparison to the control group [2] [mg/dL] |
| --- | --- | --- | --- | --- | --- |
| well soluble in water | CO[C@H]1[C@H](O)[C@@H](O)[C@@H](O)[C@@H](O)[C@@H]1O [Sequoyitol, sequoyitol] | inhibits the breakdown of hepatic glycogen and the absorption of glucose | remarkably decreases high glycemia | very low toxicity | – |
| – | [H]/N=C(/N)N/C(=N/[H])NCCc1ccccc1 [Phenformin Hydrochloride] | – | – | – | 155.8 |
